Experimental data reported in patent publication US11377441B2, “Covalent inhibitors of KRAS” (Araxes Pharma LLC, priority 2017, dated 2022).

Target: T1, KRAS G12C 1-169, his-tagged protein, GDP-loaded (Homo sapiens, UniProt P01116, G12C)
T1 construct: KRAS G12C 1-169, his-tagged protein, GDP-loaded
Assay: Biochemical assay: covalent modification of KRAS G12C measured by mass spectrometry (RapidFire/TOF or Q-Exactive)
Format: binding
Conditions: covalent binding to (modification of) KRAS G12C after a ten minute incubation period
In short: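 Intact-mass readout (TOF or Q-Exactive, charge-envelope deconvolution) gives percent covalent adduct from modified and unmodified species. Compound at 10, 30 or 100 μM was incubated at room temperature for 10 min to 24 h with 2 μM or 0.5 μM GDP-bound KRAS G12C 1-169 in Hepes/NaCl/MgCl2 buffer, then acid-quenched.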

Q: For `C=CC(=O)N1C[C@H](C)N(c2nc(NCCC(=O)N3CCCC3)nc3c(F)c(-c4c(C)ccc5[nH]nc(N)c45)c(Cl)cc23)C[C@H]1C` [Compound 60, 1-((2R,5S)-4-(7-(3-amino-5-methyl-1H-indazol-4-yl)-6-chloro-8-fluoro-2-(3-oxo-3-(pyrrolidin-1-yl)propylamino)quina-zolin-4-yl)-2,5-dimethylpiperazin-1-yl)prop-2-en-1-one], which Binding % is on record?
A: Its Binding % is “+++ (+++ indicates binding activity greater than 80%)”.

Q: For `C=CC(=O)N1C[C@H](C)N(c2nc(N3CC(N(C)C)C3)nc3c(F)c(-c4c(C)ccc5[nH]nc(CC)c45)c(Cl)cc23)C[C@H]1C` [Compound 61, 1-((2R,5S)-4-(6-chloro-2-(3-(dimethylamino)azetidin-1-yl)-7-(3-ethyl-5-methyl-1H-indazol-4-yl)-8-fluoroquinazolin-4-yl)-2,5-dimethylpiperazin-1-yl)prop-2-en-1-one], which Binding % is on record?
A: The Binding % was “+++ (+++ indicates binding activity greater than 80%)”.

Q: `C=CC(=O)N1C[C@H](C)N(c2nc(NCCC(=O)N(C)C)nc3c(F)c(-c4c(C)ccc5[nH]nc(N)c45)c(Cl)cc23)C[C@H]1C` [Compound 62, 3-(4-((2S,5R)-4-acryloyl-2,5-dimethylpiperazin-1-yl)-7-(3-amino-5-methyl-1H-indazol-4-yl)-6-chloro-8-fluoroquinazolin-2-ylamino)-N,N-dimethylpropanamide] was tested. Which Binding % did it give?
A: The Binding % was “+++ (+++ indicates binding activity greater than 80%)”.

Q: How did the Binding % turn out when `C=CC(=O)N1C[C@H](C)N(c2nc(NCCCN(C)C)nc3c(F)c(-c4c(C)ccc5[nH]nc(N)c45)c(Cl)cc23)C[C@H]1C` [Compound 63, 1-((2R,5S)-4-(7-(3-amino-5-methyl-1H-indazol-4-yl)-6-chloro-2-(3-(dimethylamino)propyl-amino)-8-fluoroquinazolin-4-yl)-2,5-dimethylpiperazin-1-yl)prop-2-en-1-one] was run?
A: The Binding % was “++ (++ indicates binding activity from 50 to 80%)”.

Q: With `C=CC(=O)N1C[C@H](C)N(c2nc(NCCC(=O)N(C)C)nc3c(F)c(-c4c(C)ccc5onc(N)c45)c(Cl)cc23)C[C@H]1C` [Compound 64, 3-(4-((2S,5R)-4-acryloyl-2,5-dimethylpiperazin-1-yl)-7-(3-amino-5-methylbenzo[d]isoxa-zol-4-yl)-6-chloro-8-fluoroquinazolin-2-ylamino)-N,N-dimethylpropanamide] as the compound, how does the Binding % read?
A: The Binding % was “++ (++ indicates binding activity from 50 to 80%)”.

Q: `C=CC(=O)N1C[C@H](C)N(c2nc(N3CC(N(C)C)C3)nc3c(F)c(-c4c(C)ccc5c(O)n[nH]c45)c(Cl)cc23)C[C@H]1C` [Compound 65, 1-((2R,5S)-4-(6-chloro-2-(3-(dimethylamino)azetidin-1-yl)-8-fluoro-7-(3-hydroxy-6-methyl-1H-indazol-7-yl)quinazolin-4-yl)-2,5-dimethylpiperazin-1-yl)prop-2-en-1-one] was tested. Which Binding % did it give?
A: The Binding % was “+ (+ indicates binding activity greater than 0% and up to 50%)”.

Q: With `C=CC(=O)N1C[C@H](C)N(c2nc(Nc3cnn(C)c3)nc3c(F)c(-c4c(C)ccc5[nH]nc(N)c45)c(Cl)cc23)C[C@H]1C` [Compound 68, 1-((2R,5S)-4-(7-(3-amino-5-methyl-1H-indazol-4-yl)-6-chloro-8-fluoro-2-(1-methyl-1H-pyrazol-4-ylamino)quinazolin-4-yl)-2,5-dimethylpiperazin-1-yl)prop-2-en-1-one] as the compound, how does the Binding % read?
A: The Binding % was “+++ (+++ indicates binding activity greater than 80%)”.

Q: For `C=CC(=O)N1C[C@H](C)N(c2nc(OCCCN(CC)CC)nc3c(F)c(-c4c(C)ccc5[nH]nc(N)c45)c(Cl)cc23)C[C@H]1C` [Compound 69, 1-((2R,5S)-4-(7-(3-amino-5-methyl-1H-indazol-4-yl)-6-chloro-2-(3-(diethylamino)propoxy)-8-fluoroquinazolin-4-yl)-2,5-dimethylpiperazin-1-yl)prop-2-en-1-one], which Binding % is on record?
A: Its Binding % is “+++ (+++ indicates binding activity greater than 80%)”.

Q: Which Binding % does the source give for `C=CC(=O)N1C[C@H](C)N(c2nc(OCCN3CCC(F)CC3)nc3c(F)c(-c4c(C)ccc5[nH]nc(N)c45)c(Cl)cc23)C[C@H]1C` [Compound 70, 1-((2R,5S)-4-(7-(3-amino-5-methyl-1H-indazol-4-yl)-6-chloro-8-fluoro-2-(2-(4-fluoropiperidin-1-yl)ethoxy)quinazolin-4-yl)-2,5-dimethylpiperazin-1-yl)prop-2-en-1-one] here?
A: The Binding % was “+++ (+++ indicates binding activity greater than 80%)”.

Q: How did the Binding % turn out when `C=CC(=O)N1C[C@H](C)N(c2nc(N3CC(N(C)C)C3)nc3c(F)c(-c4c(C)ccc5c(N)noc45)c(Cl)cc23)C[C@H]1C` [Compound 71, 1-((2R,5S)-4-(7-(3-amino-6-methylbenzo[d]isoxazol-7-yl)-6-chloro-2-(3-(dimethylamino)azetidin-1-yl)-8-fluoroquinazolin-4-yl)-2,5-dimethylpiperazin-1-yl)prop-2-en-1-one] was run?
A: The Binding % was “+ (+ indicates binding activity greater than 0% and up to 50%)”.

Q: `C=CC(=O)N1C[C@H](C)N(c2nc(NCCCN3CCOCC3)nc3c(F)c(-c4c(C)ccc5[nH]nc(N)c45)c(Cl)cc23)C[C@H]1C` [Compound 72, 1-((2R,5S)-4-(7-(3-amino-5-methyl-1H-indazol-4-yl)-6-chloro-8-fluoro-2-(3-morpholinopropylami-no)quinazolin-4-yl)-2,5-dimethylpiperazin-1-yl)prop-2-en-1-one] was tested. Which Binding % did it give?
A: The Binding % was “+++ (+++ indicates binding activity greater than 80%)”.

Q: `C=CC(=O)N1C[C@H](C)N(c2nc(NCCCN(C)C)nc3c(F)c(-c4c(C)ccc5onc(N)c45)c(Cl)cc23)C[C@H]1C` [Compound 73, 1-((2R,5S)-4-(7-(3-amino-5-methylbenzo[d]isoxa-zol-4-yl)-6-chloro-2-(3-(dimethylamino)propyl-amino)-8-fluoroquinazolin-4-yl)-2,5-dimethylpiperazin-1-yl)prop-2-en-1-one] was tested. Which Binding % did it give?
A: Its Binding % is “+ (+ indicates binding activity greater than 0% and up to 50%)”.

Q: For `C=CC(=O)N1C[C@H](C)N(c2nc(Nc3cnn(C)c3)nc3c(F)c(-c4c(C)ccc5onc(N)c45)c(Cl)cc23)C[C@H]1C` [Compound 74, 1-((2R,5S)-4-(7-(3-amino-5-methylbenzo[d]osoxa-zol-4-yl)-6-chloro-8-fluoro-2-(1-methyl-1H-pyrazol-4-ylamino)quinazolin-4-yl)-2,5-dimethylpiperazin-1-yl)prop-2-en-1-one], which Binding % is on record?
A: The Binding % was “+ (+ indicates binding activity greater than 0% and up to 50%)”.

Q: With `C=CC(=O)N1C[C@H](C)N(c2nc(N3CC(N(C)C)C3)nc3c(F)c(-c4cncc5[nH]ncc45)c(Cl)cc23)C[C@H]1C` [Compound 77, 1-((2R,5S)-4-(6-chloro-2-(3-(dimethylamino)azetidin-1-yl)-8-fluoro-7-(1H-pyrazolo[3,4-c]pyridin-4-yl)quinazolin-4-yl)-2,5-dimethylpiperazin-1-yl)prop-2-en-1-one] as the compound, how does the Binding % read?
A: Its Binding % is “+ (+ indicates binding activity greater than 0% and up to 50%)”.

Q: `C=CC(=O)N1C[C@H](C)N(c2nc(OCCN(CC)CC)nc3c(F)c(-c4c(C)ccc5[nH]nc(N)c45)c(Cl)cc23)C[C@H]1C` [Compound 78, 1-((2R,5S)-4-(7-(3-amino-5-methyl-1H-indazol-4-yl)-6-chloro-2-(2-(diethylamino)ethoxy)-8-fluoroquinazolin-4-yl)-2,5-dimethylpiperazin-1-yl)prop-2-en-1-one] was tested. Which Binding % did it give?
A: The Binding % was “+++ (+++ indicates binding activity greater than 80%)”.

Q: For `C=CC(=O)N1C[C@H](C)N(c2nc(NCCN3CCOCC3)nc3c(F)c(-c4c(C)ccc5[nH]nc(N)c45)c(Cl)cc23)C[C@H]1C` [Compound 79, 1-((2R,5S)-4-(7-(3-amino-5-methyl-1H-indazol-4-yl)-6-chloro-8-fluoro-2-(2-morpholinoethylamino)quinazolin-4-yl)-2,5-dimethylpiperazin-1-yl)prop-2-en-1-one], which Binding % is on record?
A: Its Binding % is “+++ (+++ indicates binding activity greater than 80%)”.

Q: For `C=CC(=O)N1C[C@H](C)N(c2nc(NC3CCN(C4CC4)CC3)nc3c(F)c(-c4c(C)ccc5[nH]nc(N)c45)c(Cl)cc23)C[C@H]1C` [Compound 80, 1-((2R,5S)-4-(7-(3-amino-5-methyl-1H-indazol-4-yl)-6-chloro-2-(1-cyclopropylpiperidin-4-ylamino)-8-fluoroquinazolin-4-yl)-2,5-dimethylpiperazin-1-yl)prop-2-en-1-one], which Binding % is on record?
A: The Binding % was “+++ (+++ indicates binding activity greater than 80%)”.

Q: For `C=CC(=O)N1C[C@H](C)N(c2nc(OCCN3CCOCC3)nc3c(F)c(-c4c(C)ccc5onc(N)c45)c(Cl)cc23)C[C@H]1C` [Compound 81, 1-((2R,5S)-4-(7-(3-amino-5-methylbenzo[d]isoxazol-4-yl)-6-chloro-8-fluoro-2-(2-morpholinoethoxy)quina-zolin-4-yl)-2,5-dimethylpiperazin-1-yl)prop-2-en-1-one], which Binding % is on record?
A: Its Binding % is “++ (++ indicates binding activity from 50 to 80%)”.

Q: Which Binding % does the source give for `C=CC(=O)N1C[C@H](C)N(c2nc(N3CC(N(C)C)C3)nc3c(F)c(-c4c(C)ccc5[nH]c(=O)[nH]c45)c(Cl)cc23)C[C@H]1C` [Compound 82, 4-(4-((2S,5R)-4-acryloyl-2,5-dimethylpiperazin-1-yl)-6-chloro-2-(3-(dimethylamino)azetidin-1-yl)-8-fluoroquinazolin-7-yl)-5-methyl-1H-benzo[d]imidazol-2(3H)-one] here?
A: Its Binding % is “+++ (+++ indicates binding activity greater than 80%)”.

Q: For `C=CC(=O)N1C[C@H](C)N(c2nc(OCCN3CCC(F)(F)C3)nc3c(F)c(-c4c(C)ccc5onc(N)c45)c(Cl)cc23)C[C@H]1C` [Compound 85, 1-((2R,5S)-4-(7-(3-amino-5-methylbenzo[d]isoxazol-4-yl)-6-chloro-2-(2-(3,3-difluoropyrrolidin-1-yl)ethoxy)-8-fluoroquinazolin-4-yl)-2,5-dimethylpiperazin-1-yl)prop-2-en-1-one], which Binding % is on record?
A: Its Binding % is “+++ (+++ indicates binding activity greater than 80%)”.
